Key:
[1] = tested on: human pulmonary epithelium BEAS-2B; experiment: MTT test for cytotoxicity; assay type: cell-based; details: tested in the range 10 nM - 1 µM
Procedure: (§1) In a model of human pulmonary epithelium BEAS-2B (ATCC - CRL-9609), PC and PEA were tested in the range 10 nM - 1 µM.

[2] = tested on: human pulmonary epithelium BEAS-2B; experiment: Cell proliferation by crystal violet colouring; assay type: cell-based; details: tested in the range 10 nM - 1 µM
Procedure: as §1

COX-2 (human) = molecular target: T1, COX-2 (human) (Homo sapiens, UniProt P35354); experiment: COX-2 (human) Inhibitor Screening Assay Kit, in vitro ELISA method; assay type: biochemical; details: Cayman Chemical # 701080
T1 construct: purchased Cayman Chemical 701080
T1 sequence (P35354 18-604): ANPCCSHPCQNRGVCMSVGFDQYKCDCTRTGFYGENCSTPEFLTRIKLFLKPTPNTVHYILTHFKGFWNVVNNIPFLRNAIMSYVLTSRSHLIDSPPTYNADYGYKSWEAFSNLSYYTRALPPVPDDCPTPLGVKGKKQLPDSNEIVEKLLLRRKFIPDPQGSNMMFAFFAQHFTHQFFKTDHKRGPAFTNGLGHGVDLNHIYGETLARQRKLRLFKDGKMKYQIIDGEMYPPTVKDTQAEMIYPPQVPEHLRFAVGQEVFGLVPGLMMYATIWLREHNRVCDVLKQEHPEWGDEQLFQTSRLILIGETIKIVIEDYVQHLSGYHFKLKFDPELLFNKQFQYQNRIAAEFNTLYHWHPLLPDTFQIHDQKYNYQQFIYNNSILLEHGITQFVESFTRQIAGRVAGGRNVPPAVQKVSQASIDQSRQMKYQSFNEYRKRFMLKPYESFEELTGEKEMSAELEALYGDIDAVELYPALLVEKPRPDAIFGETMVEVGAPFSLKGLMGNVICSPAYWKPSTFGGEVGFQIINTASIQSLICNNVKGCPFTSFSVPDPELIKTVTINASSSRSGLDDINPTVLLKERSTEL
From the text: Measurement of the IC50 in an in vitro test (ELISA method - COX-2 (human) Inhibitor Screening Assay Kit, # 701080, Cayman Chemical) gave the following results.

[3] = tested on: human pulmonary epithelium cell line BEAS-2B; experiment: ROS measured as fluorescence emission of intracellular probe DCF-DA after LPS or Poly I:C stimulus; assay type: cell-based; details: stimulus LPS or PIC, PC and PEA 1 µM for 48h, Figure 1
Procedure: (§2) The cells were treated with PC and PEA 1 µM for 48h. The ROS (which are powerful oxidants) were measured as fluorescence emission of the intracellular probe DCF-DA (dichlorofluorescein diacetate). The toxicity was measured as release of an intracellular enzyme (lactate dehydrogenase LDH) in the extracellular medium; the release is proportional to the toxicity and is measured with a spectrophotometer.

[4] = tested on: human pulmonary epithelium cell line BEAS-2B; experiment: Toxicity as lactate dehydrogenase (LDH) release after LPS or Poly I:C stimulus; assay type: cell-based; details: stimulus LPS or PIC, PC and PEA 1 µM for 48h, Figure 1
Procedure: as §2

[5] = tested on: interleukin 8 (IL-8) transcript; experiment: IL-8 transcript by real-time PCR after inflammatory stimulus; assay type: cell-based, human; details: BEAS-2B, bacterial (LPS) or viral (PIC) stimulus, PC and PEA 1 µM for 24h, Figure 2
Procedure: The cells were treated with PC and PEA 1 µM for 24h. The interleukin 8 (IL-8) transcript was measured by means of real-time PCR.

[6] = tested on: transcripts for subunits 2 and 4 of complex IV of the mitochondrial respiratory chain (COX2 and COX4) and two subunits of the ATP synthase mitochondrial enzyme …; experiment: Mitochondrial respiratory chain and ATP synthase transcripts by real-time PCR; assay type: cell-based, human; details: BEAS-2B, bacterial (LPS) or viral (PIC) stimulus, PC and PEA 1 µM for 24h, Figure 3
Procedure: The cells were treated with PC and PEA 1 µM for 24h. The transcripts for subunits 2 and 4 of complex IV of the mitochondrial respiratory chain (COX2 and COX4) and the transcripts for two subunits of the ATP synthase mitochondrial enzyme (ATP mit and ATP n) were measured by means of real-time PCR.

IC50 (COX-2 (human)): 575 nM
SMILES: CCCCCCCCCCCCCCCC(=O)NCCO [PEA, palmitoylethanolamide]
toxicity (MTT test) [1]: absence of toxicity
effect on cell growth (proliferation, crystal violet) [2]: no effect on cell growth
oxidative stress (ROS, DCF-DA fluorescence) [3]: protect from oxidative stress
toxicity (LDH release in the extracellular medium) [4]: protect from oxidative stress and toxicity
production of inflammatory cytokines (IL-8 transcript) [5]: reduce the production of inflammatory cytokines
activation of the mitochondrial respiratory burst (COX2, COX4, ATP mit, ATP n transcripts) [6]: reduce activation of the mitochondrial respiratory burst
